Patent US7915270B2, “Oxazole ketones as modulators of fatty acid amide hydrolase” (The Scripps Research Institute, priority 2006, dated 2011)

Assays:
[1] = molecular target: T1, Rat FAAH (Rattus norvegicus, UniProt P97612); experiment: Assay Method 2: FAAH assay, 3H-anandamide hydrolysis in cell homogenate (SK-N-MC cells transfected with rat FAAH); format: biochemical; conditions: 3H-AEA 80 nM, rt 1 h, pH 9
T1 construct: expressed in transfected cells
T1 sequence (P97612 1-579): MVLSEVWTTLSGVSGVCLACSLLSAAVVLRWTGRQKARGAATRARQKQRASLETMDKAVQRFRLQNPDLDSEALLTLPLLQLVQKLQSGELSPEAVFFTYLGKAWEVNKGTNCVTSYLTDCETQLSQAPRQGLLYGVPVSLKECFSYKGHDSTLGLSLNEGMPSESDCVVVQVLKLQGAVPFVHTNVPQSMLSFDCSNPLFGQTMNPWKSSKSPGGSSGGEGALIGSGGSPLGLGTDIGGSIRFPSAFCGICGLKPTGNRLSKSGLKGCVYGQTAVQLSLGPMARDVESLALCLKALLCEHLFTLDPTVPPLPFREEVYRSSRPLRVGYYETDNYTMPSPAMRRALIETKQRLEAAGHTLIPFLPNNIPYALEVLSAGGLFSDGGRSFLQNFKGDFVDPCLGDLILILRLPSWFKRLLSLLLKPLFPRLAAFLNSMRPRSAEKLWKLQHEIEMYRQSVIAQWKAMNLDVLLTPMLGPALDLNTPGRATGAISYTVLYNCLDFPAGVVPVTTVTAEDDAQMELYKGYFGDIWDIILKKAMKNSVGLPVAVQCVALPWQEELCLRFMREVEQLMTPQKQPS

[2] = Pharmacokinetic testing, intravenous bolus in rats; format: in vivo; conditions: rat, plasma, 2 mg/kg, male Sprague Dawley rats, 1 mg/mL in 2 mL/kg
Method: For each test compound, two male Sprague Dawley Rats (Charles River Laboratories; approx. 300 g body weight) were used. Animals were individually housed, provided food and water ad libitum, and were maintained on a 12 h light and dark cycle. Animals received from the vendor were surgically cannulated by the vendor with right jugular vein and left carotid artery catheters. Animals were acclimatized for at least 5 days after receipt from the vendor prior to investigations.
Animals received a bolus intravenous dose of the test compound at a dose of 1 mg/mL in a volume of 2 mL/kg via the right jugular vein catheter. The intravenous dosing solution was prepared in 55% pharmasolve, 20% cremophor, and […] physiological saline, or 100% saline adjusted to pH 8.0.
Following intravenous administration, blood was collected (sampled 0.35 mL per time point from the left carotid artery catheter) at 0.083, 0.25, 0.5, 1, 2, 4, and 6 h post-dose. Blood was collected into tubes containing EDTA and stored at 4° C. for not more than 2 h. The samples were centrifuged at 10,000 rpm in a micro-centrifuge for 5 min to obtain a plasma fraction. The plasma was stored at between −20 and −80° C. until processed for analysis. These samples were analyzed by LC-MS/MS to determine the plasma level of the compound.
Plasma level vs. time plots were created and WinNonlin (Pharsight Corp.) was used to analyze the data. A non-compartmental pharmacokinetic model was used to determine the pharmacokinetic parameters, including clearance, volume of distribution (Vd), and half-life (t1/2).

## O=C(O)c1cccc(-c2cnc(C(=O)CCCCCCc3ccccc3)o2)n1 [Example 37, 6-(2-(7-Phenylheptanoyl)oxazol-5-yl)picolinic acid]
[1]
  IC50: 11 nM
[2]
  Vd: 0.86 L/kg
  clearance: 7.67 mL/min/kg
  half-life: 74.4 min

## O=C(O)c1ccc(-c2cnc(C(=O)CCCCCCc3ccccc3)o2)nc1 [Example 38, 6-(2-(7-Phenylheptanoyl)oxazol-5-yl)nicotinic acid]
[1]
  IC50: 2 nM
[2]
  Vd: 1.4 L/kg
  clearance: 112 mL/min/kg
  half-life: 9 min
